Tests used:
[1] = Stability of oxaliplatin in PB at pH 7.4 (HPLC); assay type: physicochemical; conditions: pH 7.4, 20 °C
Experimental: The samples were incubated at 20 °C and measured over 25 h. […] RP-HPLC runs were performed using a Waters Acquity UPLC HSS T3 column (100 Å, 1.8 μm, 3.0 mm × 50 mm) on a Dionex Thermo Scientific UltiMate 3000 HPLC system, equipped with a HPG-3400RS binary pump and a DAD-3000RS UV–vis detector. Chromatograms were evaluated at a wavelength of 230 nm. Milli-Q water (mobile phase A) and acetonitrile (mobile phase B), both containing 0.1% TFA, were used as eluents. The flow rate was consistent at 0.6 mL/min for all measurements using the following gradient: 0–0.5 min A 99:1 B, 0.5–5.5 min linear gradient to A 1:99 B, 5.5–6.5 min A 1:99 B, 6.5–9.2 min A 99:1 B.

[2] = design: method as in Schueffl et al.; conditions: oxaliplatin data used from earlier paper, ref Schueffl et al., cited from earlier work
CT26 colon cancer cells = test system: CT26 colon cancer cells; design: method as in Schueffl et al.; conditions: already described in earlier studies; ref Schueffl et al.; cited from earlier work
albumin = molecular target: T1, albumin (Homo sapiens, UniProt P02768); design: method as in Barbas et al.; conditions: equimolar DFSA/albumin ratios; ref Barbas et al.; cited from earlier work
T1 construct: purchased Sigma-Aldrich A8763

[3] = serum platinum, i.v. 9 mg/kg oxaliplatin

T1 sequence (P02768 25-609): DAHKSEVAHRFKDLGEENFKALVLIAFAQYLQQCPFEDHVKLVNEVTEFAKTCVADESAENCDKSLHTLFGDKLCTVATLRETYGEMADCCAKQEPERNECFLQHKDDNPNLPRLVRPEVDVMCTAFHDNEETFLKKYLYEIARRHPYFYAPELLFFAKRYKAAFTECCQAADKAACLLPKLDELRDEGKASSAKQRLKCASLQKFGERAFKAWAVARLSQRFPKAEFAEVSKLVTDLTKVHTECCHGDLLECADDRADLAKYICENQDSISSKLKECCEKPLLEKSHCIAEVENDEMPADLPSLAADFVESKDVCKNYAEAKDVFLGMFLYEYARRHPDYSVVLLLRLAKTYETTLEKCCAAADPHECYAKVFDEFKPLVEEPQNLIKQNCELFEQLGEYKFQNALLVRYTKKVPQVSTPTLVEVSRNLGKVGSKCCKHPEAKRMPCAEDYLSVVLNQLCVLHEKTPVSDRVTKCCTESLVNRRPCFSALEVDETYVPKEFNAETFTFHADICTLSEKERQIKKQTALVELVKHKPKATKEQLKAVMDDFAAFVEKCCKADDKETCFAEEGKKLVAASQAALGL

Structure (SMILES) | Hydrolysis after 25 h [1] [%] | AUCPt_0-24 [2, 3] [mg·h/kg] | AUCPt_0-∞ [2, 3] [mg·h/kg] | Cmax ([2]; serum platinum, tmax=0.08 h) [mg/kg] | Half-life ([2]; terminal half-life) [h] | Vz ([2]; terminal phase) [kg/kg] | Percentage of AUCPt_0-∞ extrapolated from tlast to infinity ([2]; tlast=24 h) [%] | CL ([2]; total body clearance) [kg/h/kg] | Effect on overall survival in the CT26 model (CT26 colon cancer cells) | Albumin binding after 24 h (albumin)
O=C1[O][Pt]2([NH][C@@H]3CCCC[C@H]3[NH]2)[O]C1=O [oxaliplatin] | ~15 | 26.6 | 37.5 | 6.17 | 14.3 | 2.42 | 29.0 | 0.118 | does not lead to prolonged overall survival | 
O=C(O)C1=CCCCC1S(=O)(=O)Nc1ccc(F)cc1F (stereo not shown) [DFSA, 6-(N-(2,4-difluorophenyl)-sulfamoyl)-cyclohex-1-ene-1-carboxylic acid] |  |  |  |  |  |  |  |  |  | less than 25%
